The results in this text go back to patent EP0226508A1, “Indolo[3,2-c]quinoline derivatives, process for their preparation and their anti-tumour activity” (priority 1985, dated 1987).

The test system of one series is leucémie P 388. The experiment in a line: animal or person. In kind it is in vivo, souris hybrides CDF 1. The note with it: for Nombre de survivants: survivors at J 40; for Variation pondérale en g: in vivo, ip. The text has this: (§1) L'activité antitumorale a été testée in vivo sur différentes tumeurs selon le protocole général suivant:
(§2) Toutes les souris mâles ou femelles sont inoculées par voie intrapéritonéale au jour Jo avec une quantité déterminée de cellules tumorales viables, variable selon la tumeur.
(§3) Elles sont ensuite réparties en différents lots. Chaque lot correspondant aux animaux traités par le produit à tester à une dose déterminée est composé de 10 souris. Dans ce cas, le produit à tester est dissous dans l'eau distillée et il est administré, pendant n jours (J₁-Jn) variables selon le protocole choisi, par voie intrapéritonéale à raison de 0,1 ml par 10 g de poids des souris traitées, les doses du produit administré étant précisées dans les tableaux ci-dessous.
(§4) Le lot "contrôle négatif", correspondant aux animaux qui ne sont pas traités par un produit, comprend 2 √N animaux, N étant égal au nombre total de souris traitées par un produit.
(§5) Enfin, tous les essais sont conduits parallèlement à l'étude d'un lot appelé "contrôle positif" de 10 animaux qui est traité par une molécule active, variable selon le protocole choisi, dans les mêmes conditions que les lots traités par le produit à tester, afin de valider l'essai.
(§6) L'activité antitumorale est évaluée en considé-rant l'augmentation du temps de survie des animaux traités par rapport à celui des animaux du lot "contrôle négatif" selon la formule : [formula]
(§7) Un composé est considéré comme étant actif lorsque la valeur du rapport T/C est égale ou supérieure à 125 % selon le protocole retenu. Il est toxique lorsque cette valeur est égale ou inférieure à 85 %. Le produit est également considéré comme toxique lorsque la variation pondérale, exprimée en grammes et calculée par la formule : Poids moyen du lot mesuré au jour 5 -poids moyen du même lot au jour 1 est égale ou inférieure à - 4 g.
a) Test de la leucémie P 388 (GERAN et al., Cancer Chemother, 1972, 2, 07-57).
Les essais sont effectués avec des souris hybrides CDF 1 inoculées par voie intrapéritonéale avec 10⁶ cellules leucémiques de la lignée P 388. Le composé à tester est administré pendant 5 jours (J1-J5). Le contrôle positif du test est le 5-fluorouracile qui est administré dans les mêmes conditions. Le nombre d'animaux survivants est évalué au jour J 40. Un composé est considéré comme étant actif lorsque le rapport T/C est supérieur à 127 %.

A further series has as its system leucémie L 1210. The experiment in a line: In vivo antitumour activity, L 1210 leukemia test. Set-up: species or system souris hybrides CDF₁. Conditions: for Nombre de survivants: survivors at J 30.
Text: as §1, §2, §3, §4, §5, §6, §7
b) Test de la leucémie L 1210 (GERAN et al., Cancer Chemother, 1972, 2, 07-57).
Les essais sont effectués avec des souris hybrides CDF₁ inoculées avec 10⁵ cellules leucémiques de la lignée L 1210. Le composé à tester est administré pendant 5 jours (J₁-J₅).Le contrôle positif du test est le 5-fluorouracile administré dans les mêmes conditions. Le nombre d'animaux survivants est évalué au jour J 30. Un composé est considéré comme étant actif lorsque le rapport T/C est supérieur ou égal à 125 %.

Another series deals with mélanome B 16. Description: In vivo antitumour activity, B 16 melanoma test. Set-up: species or system souris hybrides BDF₁. Conditions: B 16 melanoma, BDF₁ mice, 1 mg/kg i.p. J1-J9.
Text: as §1, §2, §3, §4, §5, §6
Le produit est également considéré comme toxique lorsque la variation pondérale, exprimée en grammes et calculée par la formule : Poids moyen du lot mesuré au jour 5 -poids moyen du même lot au jour 1 est égale ou inférieure à - 4 g.
Les essais sont effectués avec des souris hybrides BDF₁ inoculées avec 0,5 ml d'un homogénat de mélanome B 16 réalisé à partir de 1 g de tumeur dans 10 ml de sérum physiologique. Le composé à tester est administré pendant 9 jours (J₁-J₉).Le contrôle positif du test est le Cis-Platine administré dans les mêmes conditions. Le nombre d'animaux survivants est évalué au jour J 60.

Series [1] relates to souris consanguines DBA₂ saines. Description: Acute toxicity, single intraperitoneal injection in healthy mice, mortality at day 7. It counts as in vivo. Conditions: single i.p. injection, 50 mg/kg.
Series [2] concerns lignée tumorale leucémie L 1210. Description: In vitro cytotoxic activity on L 1210 leukemia cell culture (inhibition of cell proliferation). In kind it is cell-based. The note with it: Mus musculus, L1210; L 1210 culture in exponential growth, 37°C, after 48 hours of contact; read-out: ID 50 (the source's name). As to the method:
1) In vitro : (PAOLETTI et al., Chem. Biol. Interaction, 1979, 25, 45-58).
L'activité cytotoxique des composés de l'invention a été évaluée par des essais in vitro. Ces essais consistent à ajouter des concentrations croissantes du composé à tester à une culture cellulaire de la lignée tumorale leucémie L 1210 en phase exponentielle de croissance. Les cellules sont incubées à 37°C dans une étuve à CO₂ et comptées toutes les 24 heures. Le calcul de l'ID₅₀ (concentration du produit exprimée en micromole 1⁻¹ qui inhibe la prolifération cellulaire à 50 p. 100) est effectuée après 48 heures de contact. Ainsi déterminées les ID₅₀ des composés de l'invention sont rassemblées dans le tableau ci-après.

Where [3] appears, read: P 388, CDF 1 mice, 20 mg/kg i.p. J1-J5.
The mark [4] stands for this setting: L 1210, CDF₁ mice, 20 mg/kg i.p. J1-J5, 20 mg/kg.
Setting [5] is: L 1210, CDF₁ mice, 20 mg/kg i.p. J1-J5, listed as 5 Fluoro-uracile, 20 mg/kg.
[6] abbreviates: L 1210, CDF₁ mice, 20 mg/kg i.p. J1-J5.
Setting [7] is: Mus musculus, P388, ip, P 388, CDF 1 mice, 5 mg/kg i.p. J1-J5, read-out: T/C %.
The mark [8] stands for this setting: Mus musculus, P388, ip, P 388, CDF 1 mice, 10 mg/kg i.p. J1-J5, read-out: T/C %.
[9] abbreviates: Mus musculus, P388, ip, P 388, CDF 1 mice, 20 mg/kg i.p. J1-J5, read-out: T/C %.
Setting [10] is: P 388, CDF 1 mice, 5 mg/kg i.p. J1-J5.
Setting [11] is: P 388, CDF 1 mice, 10 mg/kg i.p. J1-J5.
Where [12] appears, read: L 1210, CDF₁ mice, 5 mg/kg i.p. J1-J5.
Setting [13] is: L 1210, CDF₁ mice, 10 mg/kg i.p. J1-J5.
The mark [14] stands for this setting: L 1210, CDF₁ mice, 2,5 mg/kg i.p. J1-J5.

“And” between values parts separate entries of the source, which are not always exact repeats. Identical values can stand only once.

As to `O=c1[nH]cc(F)c(=O)[nH]1` [5 - Fluoro-uracile, 5-fluorouracile, reference compound], the Nombre de survivants in the series with leucémie P 388 (setting [3]) and in the series on leucémie L 1210 (setting [6]) was 0 in each case. The “Jour médian de survie” value with leucémie L 1210 (setting [4]) is 15,7 and 14,5; in the series on leucémie L 1210 (setting [5]), 15,5. Also, the T/C % with leucémie L 1210 (setting [4]) is 191% and 183%; with leucémie L 1210 (setting [5]), 174%.
Turning to `[NH2][Pt]([NH2])([Cl])[Cl]` [Cis-Platine, reference compound], in the series on mélanome B 16 (1 mg/kg), the “Jour médian de survie” value was 39 and 37; the T/C % is 140% and 142% and 157%. This compound also registered a Nombre de survivants in the series with mélanome B 16 (survivors at J 60) of 0.
Turning to `CCN(CC)CCCNc1nc2ccccc2c2c1c1cc(OC)ccc1n2C` [Dérivé N°1, (diéthylamino-3 propylamino)-6 méthoxy-8 méthyl-11 11-H indolo[3,2-c]quinoléine], the response vs control in vivo at 5 mg/kg with leucémie P 388 (setting [7]) turned out to be 142%. The response vs control in vivo at 10 mg/kg in the series on leucémie P 388 (setting [8]) amounted to 154%. Besides, in the series on leucémie P 388 (setting [9]), the response vs control in vivo at 20 mg/kg worked out at 142%. Further, the Nombre de survivants in the series with leucémie P 388 (setting [10]), with leucémie P 388 (setting [11]) and with leucémie P 388 (setting [3]) was 0 in each case. Also, the “Variation pondérale en g” value in the series on leucémie P 388 (5 mg/kg) is recorded as “- 0,4 g”; in the series with leucémie P 388 (10 mg/kg), “- 0,7 g”; in the series on leucémie P 388 (20 mg/kg) it was “- 1,2 g”. Besides, the “mortalité évaluée au septième jour après l'administration” value in series [1] is reported as “aucune mortalité”. Also, the IC50 in series [2] was determined as 350 nM.
Turning to `COc1ccc2c(c1)c1c(NCCCN(C)C)nc3ccccc3c1n2C` [Dérivé N°2, (diméthylamino-3 propylamino)-6 méthoxy-8 méthyl-11 11-H indolo[3,2-c]quinoléine], the IC50 in series [2] was found to be 400 nM.
As for `CN(C)CCCNc1nc2ccccc2c2c1c1cc(O)ccc1n2C` [Dérivé N°4, (diméthylamino-3 propylamino)-6 hydroxy-8 méthyl-11 11-H indolo[3,2-c]quinoléine], the response vs control in vivo at 5 mg/kg in the series on leucémie P 388 (setting [7]) was 133%. The response vs control in vivo at 10 mg/kg in the series with leucémie P 388 (setting [8]) turned out to be 136%. Moreover, the response vs control in vivo at 20 mg/kg in the series with leucémie P 388 (setting [9]) is 137%. The response vs control in vivo at 40 mg/kg in the series on leucémie P 388 (Mus musculus, P388, ip, P 388, CDF 1 mice, 40 mg/kg i.p. J1-J5, read-out: T/C %) came out at 65%. Moreover, the response vs control in vivo at 2.5 mg/kg with leucémie P 388 (Mus musculus, P388, ip, P 388, CDF 1 mice, 2,5 mg/kg i.p. J1-J5, read-out: T/C %) was 129%. For the same compound, the Nombre de survivants in the series on leucémie P 388 (setting [10]) stood at 0; in the series with leucémie P 388 (setting [11]) it was 0; in the series with leucémie P 388 (setting [3]), 0; in the series with leucémie P 388 (P 388, CDF 1 mice, 40 mg/kg i.p. J1-J5), 0; with leucémie P 388 (P 388, CDF 1 mice, 2,5 mg/kg i.p. J1-J5), 0; in the series with leucémie L 1210 (setting [12]), 0. Also, the Nombre de survivants in the series with leucémie L 1210 (setting [13]), in the series on leucémie L 1210 (setting [6]) and in the series with leucémie L 1210 (setting [14]) was 0 in each case. The “Variation pondérale en g” value is recorded as “+ 2,3 g” in the series with leucémie P 388 (5 mg/kg), “+ 1,3 g” in the series with leucémie P 388 (10 mg/kg), “+ 1,1 g” with leucémie P 388 (20 mg/kg) and “+ 3,8 g” with leucémie P 388 (40 mg/kg). The “Jour médian de survie” value with leucémie L 1210 (setting [12]) is on record as 13,0; in the series with leucémie L 1210 (setting [13]), 11,25; in the series with leucémie L 1210 (setting [6]), 10,1; with leucémie L 1210 (setting [14]) it was 10,3. Moreover, the T/C % in the series with leucémie L 1210 (setting [12]) turned out to be 158%; in the series on leucémie L 1210 (setting [13]) it was 137%; in the series with leucémie L 1210 (setting [6]), 123%; in the series with leucémie L 1210 (setting [14]) it was 126%. In addition, in series [2], the IC50 came to 40 nM.
`COc1ccc2[nH]c3c4ccccc4nc(NCCCN(C)C)c3c2c1` [Dérivé N°6, (diméthylamino-3 propylamino)-6 méthoxy-8 11-H indolo [3,2-c]quinoléine]: the IC50 in series [2] came out at 800 nM.
On the same count and under the same terms, the result for `CCN(CC)CCNc1nc2ccccc2c2[nH]c3ccc(OC)cc3c12` [Dérivé N°7, (diéthylamino-2 éthylamino)-6 méthoxy-8 11-H indolo[3,2-c]quinoléine] reads 2100 nM; that for `COc1ccc2[nH]c3c4ccccc4nc(NCCCN4CCOCC4)c3c2c1` [Dérivé N°8, méthoxy-8 (morpholino-3 propylamino)-6 11-H indolo[3,2-c]quinoléine], 610 nM.
The same measure, in the same setting: under `COc1ccc2[nH]c3c4ccccc4nc(NCCCN4CCCCC4)c3c2c1` [Dérivé N°9, méthoxy-8 (pipéridino-3 propylamino)-6 11-H indolo [3,2-c]quinoléine] stands 640 nM; under `CCNCCCNc1nc2ccccc2c2[nH]c3ccc(OC)cc3c12` [Dérivé N°10, (éthylamino-3 propylamino)-6 méthoxy-8 11-H indolo [3,2-c]quinoléine], 580 nM; under `CCN(CC)CCNc1nc2ccccc2c2[nH]c3ccc(O)cc3c12` [Dérivé N°13, (diéthylamino-2 éthylamino)-6 hydroxy-8 11-H indolo[3,2-c]quinoléine], 2600 nM.
